Test results reported in patent US9855239B2, “Methods for the treatment and prevention of age-related retinal dysfunction” (University of Washington, priority 2008, dated 2018).
Entries after “also recorded” stand apart in the source; their conditions may differ.

What was measured:
rhodopsin/opsin = target: T1, rhodopsin/opsin (Mus musculus, UniProt P15409); assay: Rhodopsin regeneration ratio of immunoaffinity-purified rhodopsin/opsin, single dose; type: in vivo
T1 construct: from tissue; host or cells: whole eyes of wild-type C57BL/6 female mice
Description: Forty eight hr dark-adapted, 10-month-old mice were gavaged with a single dose (˜80 mg/kg body weight) of 9-cis-R-Ac or control vehicle and exposed to strong illumination for 20 min (500 cd·m^−2 that bleached ˜90% rhodopsin). Next, mice were dark-adapted for 16 hr after which various analyses were performed (FIG. 1A). […] To investigate whether 9-cis-retinal was utilized to form isorhodopsin and to assess how much unliganded opsin was present in the mouse eyes, rhodopsin, isorhodopsin and opsin were purified by immunoaffinity chromatography from treated and control groups of mice. […] After bleaching, 9-cis-retinal is bound to opsin even in the presence of a functional retinoid cycle that produces 11-cis-retinal to regenerate rhodopsin. Eyes from non-bleached or bleached and dark-adapted untreated mice contained a small amount of free opsin.
9-cis-R-Ac was prepared as previously described (Batten, M. L., et al. PLoS medicine 2, e333 (2005); Batten, M. L., et al. J Biol Chem 279, 10422-10432 (2004)). A dose of ˜80 mg/kg body weight of 9-cis-R-Ac in 150 μl vegetable oil was administered via gavage to each treated animal. Prior to single dose experiments (FIG. 1A, Table 1), 10-month-old mice were dark-adapted for more than 48 hr, gavaged with 9-cis-R-Ac or vehicle control solution 1 hr before bleaching, exposed to light for 20 min at 500 cd·m^−2 and dark-adapted for 16 hr before analysis.
Rhodopsin purification was done under dim red light as previously described (Zhu, L., et al. J Biot Chem, 279, 53828-53839 (2004)). […] Purified rhodopsin concentration was determined at 500 nm and total amount of opsin and rhodopsin at 280 nm with a Hewlett-Packard 8452A UV-visible spectrophotometer (Palczewski, K., Carruth, M. E., Adamus, G., McDowell, J. H. & Hargrave, P. A. Vision Research, 30, 1129-1137 (1990)). […]

C57BL/6 female mice = assay: Single flash ERG analyses after long-term treatment; type: in vivo, mouse; settings: for a- and b-wave amplitudes, scotopic and photopic single flash ERG: 80 mg/kg
Source text: To evaluate the effects of rod- and cone-mediated light responses after long-term 9-cis-R-Ac treatments, mice were examined by non-invasive ERG methods. The first set of analyses was done at 4 and 10 months of age. Under scotopic conditions, the amplitudes of a-waves decreased with age, especially at high flash intensities (C1 versus C0 group, FIG. 4A, left top panel), whereas the changes in b-waves were less evident (FIG. 4A, right top panel).
The second set of analyses was done at 14 months of age.
Six groups of mice were studied (FIG. 1B).
Two weeks after the last gavage with either, 9-cis-R-Ac, all-trans-R-Ac or vehicle, groups of 48 hr dark-adapted mice were analyzed for recovery of dark adaptation after light exposure, purified rhodopsin/opsin and retinoids in the eye and retinal morphology (FIG. 1C; Methods). Mice were exposed to light of intensity 500 cd·m^−2 that bleached ˜90% of rhodopsin, anesthetized and monitored by ERG for one hr to evaluate recovery of dark adaptation. Rhodopsin was purified and rhodopsin/opsin ratios was determined. Retinoid analyses were performed on dissected eyes removed at 0, 10, 30, and 60 min after exposure to the same amount of light. Mice used to evaluate retinal morphology were not exposed to photobleaching prior to analysis.
ERGs of anesthetized mice were recorded as previously reported.

[1] = test system: Lrat−/− and Rpe65−/− knockout mice; settings: gastric gavage, Lrat−/− mice; cited from earlier work

T1 sequence (P15409 whole entry): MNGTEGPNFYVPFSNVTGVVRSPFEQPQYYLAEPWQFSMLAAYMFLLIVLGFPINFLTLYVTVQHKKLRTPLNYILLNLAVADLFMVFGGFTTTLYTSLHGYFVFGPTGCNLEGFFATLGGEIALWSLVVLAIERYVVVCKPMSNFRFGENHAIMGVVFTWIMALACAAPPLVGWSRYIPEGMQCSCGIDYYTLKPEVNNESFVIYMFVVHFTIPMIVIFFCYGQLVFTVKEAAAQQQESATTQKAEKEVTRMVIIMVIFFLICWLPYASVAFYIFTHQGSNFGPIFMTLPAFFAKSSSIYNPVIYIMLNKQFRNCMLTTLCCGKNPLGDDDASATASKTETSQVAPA

CC(=O)OC/C=C(C)/C=C/C=C(C)\C=C\C1=C(C)CCCC1(C)C [9-cis-R-Ac, 9-cis-retinyl acetate]
regeneration ratio of rhodopsin (absorbance 498 nm/280 nm) (rhodopsin/opsin; single dose ~80 mg/kg gavage, 10-month-old mice, bleached, 16 hr dark-adapted, treated vs control, 80 mg/kg): significantly higher; also recorded: improved; also recorded: slightly higher
9-cis-retinal extracted from purified proteins (bound chromophore) (rhodopsin/opsin; single dose, samples from treated mice): a significant amount of 9-cis-retinal was detected
total amount of purified protein (rhodopsin/opsin; single dose, treated vs control): did not significantly differ
a- and b-wave amplitudes, scotopic and photopic single flash ERG (C57BL/6 female mice; 10 months of age, monthly gavage ~80 mg/kg for 6 months (N1 vs C1), high flash strengths, except a-waves under photopic conditions): slight improvement; also recorded: significantly improved; also recorded: increased significantly
sensitivities and maximal a-wave amplitudes estimated from a-wave maximal responses (C57BL/6 female mice; 14 months of age, dark-adapted mice, treated vs control): not to be significantly different
a- and b-wave amplitudes, scotopic and photopic single flash ERG (C57BL/6 female mice; 14 months of age, monthly gavage ~80 mg/kg (9-cis-R-Ac: N2 and N3), vs control C2): No significant differences; also recorded: largely disappeared
beneficial effects compared with 9-cis-retinal [1]: same beneficial effects as 9-cis-retinal
